These results are taken from paper PMC12746157, “Light-Regulated Agonists Spatiotemporally Activating the Vitamin D Receptor Mitigate Psoriasis-like Inflammation in Mice without Inducing Hypercalcemia” (ACS Central Science, 2025).

Data set [1] has as its system IL-23-induced psoriatic-like inflammation. Briefly: IL-23-induced mouse model of psoriasis (ear thickness). The class given is in vivo, C57BL/6N mice. The following applies: 420 or 520 nm light regime; i.p. LSN2148936 0.005 mg/kg.
Experimental: Each mice was administered interlueukin 23 (IL-23) once a day for a total of 3 days by intradermal injection (i.d.) into one of the mouse ears. Contralateral ear i.d. injected with PBS was used as control. Subsequently, ear thickness was measured daily, by using a digital caliper, as indicative of psoriasis-course progression (Figure A).
(A) Temporal scheme for IL-23-induced mouse model of psoriasis. Animals were treated with IL-23 (i.d.) in the left ear during three consecutive days (days 1, 2 and 3). In addition, a contralateral control was performed consisting of PBS administration in the right ear. At day 2, 3, and 4 animals were previously intraperitoneally (i.p.) administered with vehicle (saline) and drugs (i.e., LSN2148936; 0.005 mg/kg and PhotoVDRM; 0.5 mg/kg). Both ears were irradiated with 420 or 520 nm light at day 2, 3, and 4 during 8 min. […] (C) Inflammatory ear response measurements. Mice ear thickness determination in animals administrated (ip) on days 2, 3, and 4 with vehicle, LSN2148936 or PhotoVDRM treated with 420 or 520 nm light. Each day, ear thickness was measured in millimeters and represented as percentage of ear thickness increase using the first measurement of PBS-administrated ear as control. Data is shown as mean ± SD, n = 5 mice per group. Statistical analysis between PhotoVDRM and vehicle. *P < 0.05 and **P < 0.01 Student’s t test.
The nature of data set [2]: Serum total calcium measurement in mice (Arsenazo III). Particulars: after treatment i.p. days 2-4 (LSN2148936 0.005 mg/kg, PhotoVDRM 0.5 mg/kg), 420 or 520 nm. The class given is in vivo.
For data set [3], the target named is T1, VDR (Homo sapiens, UniProt P11473). As to the kind of experiment: Luminescent proximity homogeneous assay (AlphaScreen): interaction of purified VDR, RxR and TRAP220 coactivator fragment. The class given is biochemical. The following applies: UVB narrowband light (315 nm) and visible illumination at 420 nm. A general note: Alpha assays give light when donor and acceptor beads are brought close together.
T1 sequence (P11473 whole entry, the tested form may be a part): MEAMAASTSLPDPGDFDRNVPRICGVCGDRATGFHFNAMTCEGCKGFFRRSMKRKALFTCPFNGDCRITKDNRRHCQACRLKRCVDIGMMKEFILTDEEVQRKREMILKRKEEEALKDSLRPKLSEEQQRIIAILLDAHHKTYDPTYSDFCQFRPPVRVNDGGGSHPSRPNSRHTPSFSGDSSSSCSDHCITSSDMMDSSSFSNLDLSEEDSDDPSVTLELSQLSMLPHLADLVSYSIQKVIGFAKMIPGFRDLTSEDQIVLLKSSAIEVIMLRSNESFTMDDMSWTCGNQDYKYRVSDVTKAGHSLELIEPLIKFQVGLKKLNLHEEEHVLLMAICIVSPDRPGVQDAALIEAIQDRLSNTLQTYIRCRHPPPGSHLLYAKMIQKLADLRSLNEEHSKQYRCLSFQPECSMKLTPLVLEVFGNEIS
T1 sequence (P19793 whole entry partner, the tested form may be a part): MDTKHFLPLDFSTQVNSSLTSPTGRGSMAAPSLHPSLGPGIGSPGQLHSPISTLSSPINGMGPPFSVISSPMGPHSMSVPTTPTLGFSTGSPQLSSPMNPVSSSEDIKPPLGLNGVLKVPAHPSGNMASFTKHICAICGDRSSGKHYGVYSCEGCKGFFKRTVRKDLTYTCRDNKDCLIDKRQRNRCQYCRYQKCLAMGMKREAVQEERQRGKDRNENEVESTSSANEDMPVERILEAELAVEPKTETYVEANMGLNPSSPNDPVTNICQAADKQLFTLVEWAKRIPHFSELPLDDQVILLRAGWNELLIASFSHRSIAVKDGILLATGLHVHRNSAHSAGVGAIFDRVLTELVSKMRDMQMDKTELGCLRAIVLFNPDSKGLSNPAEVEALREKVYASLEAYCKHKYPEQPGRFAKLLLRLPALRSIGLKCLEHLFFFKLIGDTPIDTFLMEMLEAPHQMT
T1 sequence (Q15648 whole entry partner, the tested form may be a part): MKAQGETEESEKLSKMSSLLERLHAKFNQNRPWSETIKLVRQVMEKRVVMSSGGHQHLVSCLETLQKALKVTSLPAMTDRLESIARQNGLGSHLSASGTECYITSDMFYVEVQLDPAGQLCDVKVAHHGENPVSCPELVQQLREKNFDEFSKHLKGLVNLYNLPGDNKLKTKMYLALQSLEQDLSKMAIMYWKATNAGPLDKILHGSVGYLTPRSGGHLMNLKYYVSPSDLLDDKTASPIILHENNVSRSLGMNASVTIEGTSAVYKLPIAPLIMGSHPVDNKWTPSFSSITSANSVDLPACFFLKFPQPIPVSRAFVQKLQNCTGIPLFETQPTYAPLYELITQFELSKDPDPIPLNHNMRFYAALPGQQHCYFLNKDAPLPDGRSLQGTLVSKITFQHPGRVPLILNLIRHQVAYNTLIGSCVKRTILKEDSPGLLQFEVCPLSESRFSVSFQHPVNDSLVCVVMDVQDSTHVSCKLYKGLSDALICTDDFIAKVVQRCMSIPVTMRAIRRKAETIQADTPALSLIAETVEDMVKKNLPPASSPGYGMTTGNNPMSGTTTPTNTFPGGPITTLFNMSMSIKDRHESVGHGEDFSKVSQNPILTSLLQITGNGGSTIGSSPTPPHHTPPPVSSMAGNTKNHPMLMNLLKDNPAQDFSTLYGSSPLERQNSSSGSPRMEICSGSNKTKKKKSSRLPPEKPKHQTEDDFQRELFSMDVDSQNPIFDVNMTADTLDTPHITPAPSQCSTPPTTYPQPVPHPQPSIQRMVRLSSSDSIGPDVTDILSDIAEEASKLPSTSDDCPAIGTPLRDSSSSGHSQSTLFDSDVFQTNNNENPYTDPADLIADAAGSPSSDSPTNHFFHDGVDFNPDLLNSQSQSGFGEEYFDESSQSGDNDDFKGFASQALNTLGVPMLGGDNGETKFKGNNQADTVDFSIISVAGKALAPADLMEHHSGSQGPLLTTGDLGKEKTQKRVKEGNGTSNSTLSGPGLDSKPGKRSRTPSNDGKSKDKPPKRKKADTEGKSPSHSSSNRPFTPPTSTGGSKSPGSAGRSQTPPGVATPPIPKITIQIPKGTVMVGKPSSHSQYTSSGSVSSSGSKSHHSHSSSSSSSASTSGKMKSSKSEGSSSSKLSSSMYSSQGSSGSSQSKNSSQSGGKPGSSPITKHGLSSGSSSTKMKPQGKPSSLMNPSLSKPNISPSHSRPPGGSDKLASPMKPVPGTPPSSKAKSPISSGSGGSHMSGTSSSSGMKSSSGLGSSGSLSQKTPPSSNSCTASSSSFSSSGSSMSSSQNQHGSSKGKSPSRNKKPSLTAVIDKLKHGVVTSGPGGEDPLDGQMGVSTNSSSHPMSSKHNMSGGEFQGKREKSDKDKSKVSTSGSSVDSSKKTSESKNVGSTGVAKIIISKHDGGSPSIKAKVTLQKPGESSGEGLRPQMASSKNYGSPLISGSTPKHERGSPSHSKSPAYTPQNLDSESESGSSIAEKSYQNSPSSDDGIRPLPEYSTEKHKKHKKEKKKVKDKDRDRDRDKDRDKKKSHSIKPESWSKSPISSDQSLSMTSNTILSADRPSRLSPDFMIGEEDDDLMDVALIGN

The target in the next data set is T2, VDR-LBD (Homo sapiens, UniProt P11473).
T2 construct: VDR-LBD protein stock solution was prepared in 20 mM HEPES buffer
T2 sequence (P11473 127-423 limits assumed): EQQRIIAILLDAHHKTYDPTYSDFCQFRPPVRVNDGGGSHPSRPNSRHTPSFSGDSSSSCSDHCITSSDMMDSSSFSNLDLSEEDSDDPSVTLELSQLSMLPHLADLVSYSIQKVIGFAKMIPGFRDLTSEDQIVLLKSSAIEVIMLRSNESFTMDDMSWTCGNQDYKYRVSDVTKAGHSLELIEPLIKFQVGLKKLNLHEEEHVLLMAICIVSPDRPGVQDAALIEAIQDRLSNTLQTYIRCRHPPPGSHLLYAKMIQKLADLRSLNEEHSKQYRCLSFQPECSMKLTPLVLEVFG
As to the kind of experiment: HDX-MS of VDR-LBD with ligand in the dark and under 365 nm light. It counts as binding. Particulars: dark vs 365 nm illumination. As to the method:
Although previously used to study the effect of a cyclic azopeptide in its activated cis state, here we studied the target dynamics upon direct application of the light to the sample. To this aim, HDX-MS was applied for the characterization of the binding mode and modulation of receptor dynamics of the racemic compound PhotoVDRM. VDR-LBD was incubated alone (to provide an apo control for each experiment) or with an excess of compound PhotoVDRM and exposed to deuterium labeling for various periods of time, from 10 s to 2 h, in the dark and illuminated with light at 365 nm. […] As an additional control experiment, we also evaluated the HDX-MS of VDR-LBD in the presence and absence of a standard agonist, compound LSN2148936, in the dark and under illumination conditions. […] In order to permit direct comparison, including mathematical manipulation of the data in all these experiments, the observed deuterium incorporation percentages were converted to rate constants (expressed as −log10(k)) using our previously published Bayesian approach.
(Perkin Elmer, now Revvity, Cat.No. 6006290) in duplicate. Immediately, 54 µL of the protein solution were added and the plate was covered and incubated for 30 min at room temperature in the dark. Meanwhile, the plate with the 10X dilutions was illuminated at 365 nm for 3 min in a 96-well DED array plate (LEDA Teleopto), to allow the photoconversion of the molecules to their cis configuration. The illuminated compounds were mixed with the protein solution and incubated as described above for the plate in the dark. After the incubation time, the counts of both, the dark and illuminated plates, were measured in a Tecan Spark 20M Multimode plate reader with defined settings (excitation: 680 nm, emission: 520-620 nm, excitation time: 100ms, integration time: 300 ms). Biotinylated-His6 peptide (PerkinElmer) was used as a quality control reagent for AlphaScreen® assays and to evaluate compound interaction with the method. […] Dose-response curves and EC50 values were calculated with Graphpad software. […]

Data set [4] deals with T1, VDR. The following applies: vs other steroid receptors such as the glucocorticoid; no reference given; cited from earlier work.
Data set [5] has as its target T1, VDR. As to the kind of experiment: Luminescent proximity homogeneous assay (AlphaScreen): interaction of purified VDR, RxR and TRAP220 coactivator fragment. The class given is biochemical. As to the method: The activity of all molecules was evaluated using a luminescent proximity homogeneous assay to study interactions between purified VDR, RxR and a fragment of the transcriptional coactivator TRAP220 (Supporting Information). This method allowed us to monitor the interaction between TRAP220 and the activated VDR-RxR heterodimer, which is of mechanistic and physiological significance. Both the activation of VDR and the VDR-RxR heterodimer formation are necessary to promote the whole complex association. This system efficiently includes conformational events of the receptor upon activation that go beyond a simple binding measurement. […]
The activity of all molecules was evaluated using an in-vitro luminescent proximity homogeneous assay by using the Alphascreen technology (Cat No. 6760619R, Perkin Elmer, now Revvity). In a transparent 96-well preplate, 10X concentrations of the compounds were prepared in assay buffer (0.1% bovine serum albumin, 2 mM 1,4-dithiothreitol, 25 mM HEPES and 100 mM NaCl; pH 7.3). LSN2148936 was used as positive control. Purified histidine-tagged VDR (44 µM), flag-RxRa (5.7 µM), biotin tagged TRAP220 transcriptional coactivator (500 µM), and the donor and acceptor beads from the AlphaScreen kit (2 µL/mL each), were diluted in assay buffer. In the dark, 6 µL/well of each test compound were pipetted on a white, shallow 96-well ProxiPlateTM […]
(Perkin Elmer, now Revvity, Cat.No. 6006290) in duplicate. Immediately, 54 µL of the protein solution were added and the plate was covered and incubated for 30 min at room temperature in the dark. Meanwhile, the plate with the 10X dilutions was illuminated at 365 nm for 3 min in a 96-well DED array plate (LEDA Teleopto), to allow the photoconversion of the molecules to their cis configuration. The illuminated compounds were mixed with the protein solution and incubated as described above for the plate in the dark. After the incubation time, the counts of both, the dark and illuminated plates, were measured in a Tecan Spark 20M Multimode plate reader with defined settings (excitation: 680 nm, emission: 520-620 nm, excitation time: 100ms, integration time: 300 ms). Biotinylated-His6 peptide (PerkinElmer) was used as a quality control reagent for AlphaScreen® assays and to evaluate compound interaction with the method. The raw data were normalized to the effect of the buffer (0%) and the maximum response obtained with LSN2148936 (100%). Dose-response curves and EC50 values were calculated with Graphpad software. Each experiment was performed in triplicate, with 2 replicates per plate.
4. Hydrogen/deuterium exchange coupled to mass spectrometry (HDX-MS)
The HDX-MS experiments were performed with an in-house automated modular system interfaced with an Orbitrap Exploris 480 mass spectrometer.1 Two inter-day experiments were conducted: one in the dark (first day) and one illuminated with 365 nm light (second day). Sample preparation and on-exchange reactions were performed on opaque plates (VWR® Real-Time […]
mm, Part Nº BC5226) light source was positioned above the Tecan system used for sample preparation. The distance between the UV light and the opaque plates was 80 cm. The 365 nm light illuminated the sample preparation process and the on-exchange reaction on the second day.
A 10 µM VDR-LBD protein stock solution was prepared in 20 mM HEPES buffer (with 150 mM NaCl, 10 mM D-L Methionine and 5 mM DTT) at pH 7.5. The compound 11b was prepared at 10 mM in DMSO. The protein: compound-complex (1:10 molar ratio) was pre-incubated for 1h before the first on-exchange reaction. The HDX reaction was initiated by a 5-fold dilution of the protein stock solution, in the presence and absence of compound 11b, in the corresponding Deuterated buffer at room temperature. Samples were prepared in parallel with three replicates of […]
time point, HDX reactions were quenched with a solution of 3 M Urea and 1% TFA (pH 2.5) followed by online proteolysis with an in-house Pepsin immobilized column and desalting […]

By Emax is commonly meant the maximal effect, on the per cent scale that the assay sets. Consider `CCC(CC)(c1ccc(CCC(O)C(C)(C)C)c(C)c1)c1ccc(C(=O)N(C)CC(=O)O)c(C)c1` (stereo not shown) [LSN2148936, reference compound], for which the “IL-23-induced ear inflammation (ear thickness)” value in data set [1] is recorded as “prevented IL-23-associated inflammatory response”. Besides, in data set [2], the “effect on calcium homeostasis (serum total calcium)” value is listed as “significant effects”. The “modulation of activity by light” value at VDR [3] is on record as “not”. Moreover, the “light-dependent changes of HDX behavior” value on VDR-LBD is given as “no significant light-dependent changes”. For the same compound, at VDR [4], the “selectivity for VDR” value is recorded as “highly selective”. Also, the Emax at VDR [5] (after illumination (365 nm) for 3 min, normalized to maximum response of LSN2148936 (100%), mean ± SEM) came out at 107 ± 0.08%. On VDR [5] (dark vs 365 nm), the “effect of application of light on activity (control)” value is recorded as “not affected”.
